Like-named read-outs stand apart in the source and are kept apart here.
Assays:
[1] = target: T1, BaAAO (Bjerkandera adusta, UniProt A0ABF7PQ87); experiment: Steady-state bi-substrate kinetics of alcohol oxidation; assay type: biochemical; conditions: BaAAO, alcohol substrate 3-Cl-4-methoxybenzyl alcohol; 50 mM phosphate, pH 6.0, 25 °C
Protocol: (§1) Bi-substrate kinetics were analyzed by concurrently varying the concentration of the aforementioned alcohols and electron acceptors. Oxygen assays were carried out in a screw-cap cuvette where the alcohol was equilibrated with the desired concentration of O2 by bubbling with the appropriate O2/N2 gas mixture (4%, 10%, 21%, 44%, and 100% O2) for 10 min. Alcohol oxidation was initiated by the addition of the enzyme and followed at 285 nm for 4-methoxybenzaldehyde production and 295 nm in the case of 3-Cl-4-methoxybenzaldehyde (Δε285 = 16,950 M^−1cm^−1 and Δε295 = 15,000 M^−1cm^−1, respectively) ([Ferreira et al., 2005]). […]. BQ solutions were prepared immediately prior to use and protected from the light to avoid photodegradation.
(§2) The initial rates for bi-substrate kinetics were fitted to Eq. 1 or Eq. 2, which describe sequential and ping-pong kinetic mechanisms, respectively. […]

[2] = target: T2, PeAAO (Pleurotus eryngii, UniProt O94219); experiment: as above; assay type: biochemical; conditions: alcohol substrate 3-Cl-4-methoxybenzyl alcohol, 50 mM phosphate, pH 6.0, 25 °C
Protocol: as §1, §2

[3] = target: T1, BaAAO; experiment: Isothermal titration calorimetry with BQ; assay type: binding
Protocol: (§3) The interaction parameters of the enzymes with BQ were determined using an Auto-ITC200 high-sensitivity microcalorimeter (MicroCal, Malvern-Panalytical) thermostatted at 25 °C. Enzyme solutions (∼6 μM for BaAAO and 15 μM for PeAAO) were titrated with BQ (∼50 µM for BaAAO and ∼100 μM for PeAAO) in 50 mM Tris/HCl, pH 7.0. Up to 19 injections of 2 µL were programmed with enough time spacing for the signal to recover the baseline. The association constant (K a), the enthalpy change (ΔH) and the apparent stoichiometry (n) were estimated through non-linear regression of the experimental data using a model for one binding site implemented in Origin (Origin 7.0, OriginLab). The dissociation constant (K d), the Gibbs energy change (ΔG), and the entropy change (–TΔS) were obtained from basic thermodynamic relationships.

[4] = target: T2, PeAAO; experiment: Isothermal titration calorimetry with BQ; assay type: binding
Protocol: as §3

[5] = target: T2, PeAAO; experiment: Redox state of the enzyme during turnover (stopped-flow); assay type: biochemical; conditions: BQ as electron acceptor, regardless of the alcohol substrate, anaerobic, pH 6.0, 25 °C
Protocol: Experiments with O2 were performed with the alcohol under air-saturated conditions, while in the case of BQ, the alcohol was mixed with saturating concentration of BQ (300 µM) under anaerobic conditions. The spectral evolution of the enzymes during redox turnover was recorded between 350 and 700 nm.

[6] = target: T1, BaAAO; experiment: as above; assay type: biochemical; conditions: BQ as electron acceptor, both alcohols, anaerobic, pH 6.0, 25 °C
[7] = target: T2, PeAAO; design: method as in Ferreira et al. (2023); conditions: alcohol substrate 4-methoxybenzyl alcohol, 50 mM phosphate, pH 6.0, 25 °C, ref Ferreira et al. (2023); cited from earlier work
[8] = target: T1, BaAAO; design: method as in Ferreira et al. (2023); conditions: alcohol substrate 4-methoxybenzyl alcohol, 50 mM phosphate, pH 6.0, 25 °C, ref Ferreira et al. (2023); cited from earlier work
[9] = target: T2, PeAAO; experiment: Stopped-flow oxidative half-reaction (flavin reoxidation by O2 or BQ); conditions: for second phase of reoxidation (k ox B→C): two-step model
[10] = substrate: COc1ccc(CO)cc1Cl; experiment: Steady-state bi-substrate kinetics of alcohol oxidation; assay type: biochemical, Pleurotus eryngii; conditions: other: PeAAO, 50 mM phosphate, pH 6.0, 25 °C
Protocol: as §1, §2

[11] = substrate: O=C1C=CC(=O)C=C1; experiment: as above; assay type: biochemical, Pleurotus eryngii; conditions: other: PeAAO, alcohol substrate 3-Cl-4-methoxybenzyl alcohol, 50 mM phosphate, pH 6.0, 25 °C
Protocol: as §1, §2

T1 sequence (A0ABF7PQ87 entry or part of it): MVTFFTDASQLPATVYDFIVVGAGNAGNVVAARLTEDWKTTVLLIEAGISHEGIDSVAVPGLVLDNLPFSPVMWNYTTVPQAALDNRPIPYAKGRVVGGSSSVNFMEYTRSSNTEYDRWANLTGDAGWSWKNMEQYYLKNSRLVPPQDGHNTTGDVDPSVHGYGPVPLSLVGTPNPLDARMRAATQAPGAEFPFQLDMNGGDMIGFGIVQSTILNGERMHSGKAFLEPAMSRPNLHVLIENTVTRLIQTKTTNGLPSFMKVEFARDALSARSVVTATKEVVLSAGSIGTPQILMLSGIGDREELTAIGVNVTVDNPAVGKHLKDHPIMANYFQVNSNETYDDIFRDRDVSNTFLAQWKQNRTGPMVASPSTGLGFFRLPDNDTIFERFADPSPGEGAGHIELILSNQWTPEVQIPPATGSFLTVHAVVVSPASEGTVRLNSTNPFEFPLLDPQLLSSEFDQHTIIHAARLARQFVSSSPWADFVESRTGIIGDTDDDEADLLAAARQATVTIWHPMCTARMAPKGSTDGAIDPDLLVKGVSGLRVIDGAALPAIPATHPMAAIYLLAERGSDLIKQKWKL

For `O=C1C=CC(=O)C=C1` [BQ, 1,4-benzoquinone], the “k cat/K m(acceptor)” value [1] was 353000 ± 65000 M⁻¹ s⁻¹, the “k cat/K m(acceptor)” value [2] was 722000 ± 64000 M⁻¹ s⁻¹ and the Kd [3] was 0.05 µM. For the same molecule, the “K d of alcohols higher than K d of BQ” value ([3]; BaAAO) was ≤ 15,000 fold, the ΔH ([3]; BaAAO, ITC, 25 °C, 50 mM Tris/HCl, pH 7.0, error ±0.4) was -21.4 kcal/mol and the ΔG ([3]; BaAAO, ITC, 25 °C, 50 mM Tris/HCl, pH 7.0, from K d) was -9.9 kcal/mol. For the same molecule, the “–TΔS” value ([3]; BaAAO, ITC, 25 °C, 50 mM Tris/HCl, pH 7.0, –TΔS = ΔG–ΔH) was 11.5 kcal/mol, the Kd [4] was 27.1 µM and the ΔH ([4]; PeAAO, ITC, 25 °C, 50 mM Tris/HCl, pH 7.0, error ±0.4) was -25.1 kcal/mol. The ΔG ([4]; PeAAO, ITC, 25 °C, 50 mM Tris/HCl, pH 7.0, from K d) was -6.2 kcal/mol, the “–TΔS” value ([4]; PeAAO, ITC, 25 °C, 50 mM Tris/HCl, pH 7.0, –TΔS = ΔG–ΔH) was 18.9 kcal/mol and the “enzyme in the oxidized state during turnover” value [5] was 85%–92%. For the same molecule, the “enzyme in the oxidized state during turnover” value [6] was ~90%, the “k cat/K m(acceptor)” value [7] was 1,025 ± 154 s^−1mM^−1 and the “k cat/K m(acceptor)” value [8] was 450000 ± 70000 M⁻¹ s⁻¹. For the same molecule, the “reverse rate constant (k rev), y-axis intercept of reoxidation” value ([9]; PeAAO) was 55 s⁻¹, the “second phase of reoxidation (k ox B→C)” value ([9]; PeAAO reoxidized with 50 µM of BQ) was 5 to 10 s⁻¹ and the “second phase of reoxidation (k ox B→C)” value ([9]; PeAAO reoxidized with 100 µM of BQ) was 15 to 20 s⁻¹. The “first phase share of the total amplitude of reoxidation” value ([9]; PeAAO, 50 µM of BQ) was “more than 50%” and the “first phase share of the total amplitude of reoxidation” value ([9]; PeAAO, 100 µM of BQ) was > 85%.

B1: PeAAO (Pleurotus eryngii) (protein)
chain: ADFDYVVVGAGNAGNVVAARLTEDPDVSVLVLEAGVSDENVLGAEAPLLAPGLVPNSIFDWNYTTTAQAGYNGRSIAYPRGRMLGGSSSVHYMVMMRGSTEDFDRYAAVTGDEGWNWDNIQQFVRKNEMVVPPADNHNTSGEFIPAVHGTNGSVSISLPGFPTPLDDRVLATTQEQSEEFFFNPDMGTGHPLGISWSIASVGNGQRSSSSTAYLRPAQSRPNLSVLINAQVTKLVNSGTTNGLPAFRCVEYAEQEGAPTTTVCAKKEVVLSAGSVGTPILLQLSGIGDENDLSSVGIDTIVNNPSVGRNLSDHLLLPAAFFVNSNQTFDNIFRDSSEFNVDLDQWTNTRTGPLTALIANHLAWLRLPSNSSIFQTFPDPAAGPNSAHWETIFSNQWFHPAIPRPDTGSFMSVTNALISPVARGDIKLATSNPFDKPLINPQYLSTEFDIFTMIQAVKSNLRFLSGQAWADFVIRPFDPRLRDPTDDAAIESYIRDNANTIFHPVGTASMSPRGASWGVVDPDLKVKGVDGLRIVDGSILPFAPNAHTQGPIYLVGKQGADLIKADQ
For B1, the Km ([10]; BQ as e− acceptor (anaerobic)) was 4 ± 1 µM, the kcat ([10]; BQ as e− acceptor (anaerobic)) was 21 ± 1 s⁻¹ and the kcat/Km ([10]; BQ as e− acceptor (anaerobic)) was 5,874 ± 481 s^−1mM^−1. The Km ([10]; O2 as e− acceptor) was 11 ± 1 µM, the kcat ([10]; O2 as e− acceptor) was 43 ± 1 s⁻¹ and the kcat/Km ([10]; O2 as e− acceptor) was 3,806 ± 122 s^−1mM^−1. It also gave a Km [11] of 29 ± 2 µM.
